Test results as given in PubChem BioAssay (NCI).
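These data come from cells grown in 96-well plates and exposed to compound for 48 hours at five concentrations. Abbreviation: GI50, concentration required for 50% inhibition of growth. TGI marks complete inhibition of growth.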

Key:
Assay in all cases: NCI-60 cell line screen, 48 h
786-0 renal = tested on: 786-0 renal
A498 renal = tested on: A498 renal
A549 NSCLC = tested on: A549 NSCLC
ACHN renal = tested on: ACHN renal
BT-549 breast = tested on: BT-549 breast
CAKI-1 renal = tested on: CAKI-1 renal
COLO 205 colon = tested on: COLO 205 colon
DU-145 prostate = tested on: DU-145 prostate
EKVX NSCLC = tested on: EKVX NSCLC
HCC-2998 colon = tested on: HCC-2998 colon
HCT-116 colon = tested on: HCT-116 colon
HCT-15 colon = tested on: HCT-15 colon
HL-60(TB) leukemia = tested on: HL-60(TB) leukemia
HOP-62 NSCLC = tested on: HOP-62 NSCLC
HOP-92 NSCLC = tested on: HOP-92 NSCLC
HS 578T breast = tested on: HS 578T breast
HT29 colon = tested on: HT29 colon
IGROV1 ovarian = tested on: IGROV1 ovarian
K-562 leukemia = tested on: K-562 leukemia
KM12 colon = tested on: KM12 colon
LOX IMVI melanoma = tested on: LOX IMVI melanoma
M14 melanoma = tested on: M14 melanoma
MCF7 breast = tested on: MCF7 breast
MDA-MB-231 breast = tested on: MDA-MB-231 breast
MDA-MB-435 = tested on: MDA-MB-435
MOLT-4 leukemia = tested on: MOLT-4 leukemia
NCI-H226 lung = tested on: NCI-H226 lung
NCI-H23 lung = tested on: NCI-H23 lung
NCI-H460 lung = tested on: NCI-H460 lung
NCI-H522 lung = tested on: NCI-H522 lung
NCI/ADR-RES ovarian = tested on: NCI/ADR-RES ovarian
OVCAR-3 ovarian = tested on: OVCAR-3 ovarian
OVCAR-5 ovarian = tested on: OVCAR-5 ovarian
OVCAR-8 ovarian = tested on: OVCAR-8 ovarian
PC-3 prostate = tested on: PC-3 prostate
RPMI-8226 leukemia = tested on: RPMI-8226 leukemia
RXF 393 renal = tested on: RXF 393 renal
SF-268 CNS = tested on: SF-268 CNS
SF-295 CNS = tested on: SF-295 CNS
SF-539 CNS = tested on: SF-539 CNS
SK-MEL-2 melanoma = tested on: SK-MEL-2 melanoma
SK-MEL-28 melanoma = tested on: SK-MEL-28 melanoma
SK-MEL-5 melanoma = tested on: SK-MEL-5 melanoma
SK-OV-3 ovarian = tested on: SK-OV-3 ovarian
SN12C renal = tested on: SN12C renal
SNB-19 CNS = tested on: SNB-19 CNS
SNB-75 CNS = tested on: SNB-75 CNS
SR leukemia = tested on: SR leukemia
SW-620 colon = tested on: SW-620 colon
T-47D breast = tested on: T-47D breast
TK-10 renal = tested on: TK-10 renal
U251 CNS = tested on: U251 CNS
UACC-257 melanoma = tested on: UACC-257 melanoma
UACC-62 melanoma = tested on: UACC-62 melanoma
UO-31 renal = tested on: UO-31 renal

Structure (SMILES): COc1ccc(N(C)c2c3ccccc3nc3[nH]c4ccccc4c23)cc1
- GI50 (786-0 renal): 444 nM
- TGI (786-0 renal): 1900 nM
- GI50 (A498 renal): 939 nM
- TGI (A498 renal): 2610 nM
- GI50 (A549 NSCLC): 724 nM
- TGI (A549 NSCLC): 9190 nM
- GI50 (ACHN renal): 558 nM
- TGI (ACHN renal): 2160 nM
- GI50 (BT-549 breast): 1240 nM
- TGI (BT-549 breast): 4390 nM
- GI50 (CAKI-1 renal): 774 nM
- TGI (CAKI-1 renal): 3070 nM
- GI50 (COLO 205 colon): 347 nM
- TGI (COLO 205 colon): 6130 nM
- GI50 (DU-145 prostate): 675 nM
- TGI (DU-145 prostate): 3690 nM
- GI50 (EKVX NSCLC): 1060 nM
- TGI (EKVX NSCLC): 4120 nM
- GI50 (HCC-2998 colon): 268 nM
- TGI (HCC-2998 colon): 1020 nM
- GI50 (HCT-116 colon): 279 nM
- TGI (HCT-116 colon): 1010 nM
- GI50 (HCT-15 colon): 2290 nM
- TGI (HCT-15 colon): 9300 nM
- GI50 (HL-60(TB) leukemia): 112 nM
- TGI (HL-60(TB) leukemia): 466 nM
- GI50 (HOP-62 NSCLC): 407 nM
- TGI (HOP-62 NSCLC): 1790 nM
- GI50 (HOP-92 NSCLC): 1070 nM
- TGI (HOP-92 NSCLC): 4490 nM
- GI50 (HS 578T breast): 2550 nM
- TGI (HS 578T breast): 11000 nM
- GI50 (HT29 colon): 617 nM
- TGI (HT29 colon): 10300 nM
- GI50 (IGROV1 ovarian): 2190 nM
- TGI (IGROV1 ovarian): 13500 nM
- GI50 (K-562 leukemia): 558 nM
- TGI (K-562 leukemia): 16300 nM
- GI50 (KM12 colon): 296 nM
- TGI (KM12 colon): 1240 nM
- GI50 (LOX IMVI melanoma): 550 nM
- TGI (LOX IMVI melanoma): 1580 nM
- GI50 (M14 melanoma): 837 nM
- TGI (M14 melanoma): 1670 nM
- GI50 (MCF7 breast): 168 nM
- TGI (MCF7 breast): 655 nM
- GI50 (MDA-MB-231 breast): 616 nM
- TGI (MDA-MB-231 breast): 2050 nM
- GI50 (MDA-MB-435): 1120 nM
- TGI (MDA-MB-435): 3220 nM
- GI50 (MOLT-4 leukemia): 88.3 nM
- TGI (MOLT-4 leukemia): 50000 nM
- GI50 (NCI-H226 lung): 900 nM
- TGI (NCI-H226 lung): 3990 nM
- GI50 (NCI-H23 lung): 702 nM
- TGI (NCI-H23 lung): 2040 nM
- GI50 (NCI-H460 lung): 151 nM
- TGI (NCI-H460 lung): 7120 nM
- GI50 (NCI-H522 lung): 4980 nM
- TGI (NCI-H522 lung): 9550 nM
- GI50 (NCI/ADR-RES ovarian): 2950 nM
- TGI (NCI/ADR-RES ovarian): 9910 nM
- GI50 (OVCAR-3 ovarian): 261 nM
- TGI (OVCAR-3 ovarian): 1160 nM
- GI50 (OVCAR-5 ovarian): 917 nM
- TGI (OVCAR-5 ovarian): 4570 nM
- GI50 (OVCAR-8 ovarian): 798 nM
- TGI (OVCAR-8 ovarian): 7420 nM
- GI50 (PC-3 prostate): 424 nM
- TGI (PC-3 prostate): 2630 nM
- GI50 (RPMI-8226 leukemia): 139 nM
- TGI (RPMI-8226 leukemia): 528 nM
- GI50 (RXF 393 renal): 5400 nM
- TGI (RXF 393 renal): 22300 nM
- GI50 (SF-268 CNS): 373 nM
- TGI (SF-268 CNS): 2270 nM
- GI50 (SF-295 CNS): 387 nM
- TGI (SF-295 CNS): 2590 nM
- GI50 (SF-539 CNS): 354 nM
- TGI (SF-539 CNS): 1310 nM
- GI50 (SK-MEL-2 melanoma): 6160 nM
- TGI (SK-MEL-2 melanoma): 26100 nM
- GI50 (SK-MEL-28 melanoma): 3860 nM
- TGI (SK-MEL-28 melanoma): 21800 nM
- GI50 (SK-MEL-5 melanoma): 835 nM
- TGI (SK-MEL-5 melanoma): 2240 nM
- GI50 (SK-OV-3 ovarian): 778 nM
- TGI (SK-OV-3 ovarian): 4520 nM
- GI50 (SN12C renal): 392 nM
- TGI (SN12C renal): 1530 nM
- GI50 (SNB-19 CNS): 634 nM
- TGI (SNB-19 CNS): 5620 nM
- GI50 (SNB-75 CNS): 5190 nM
- TGI (SNB-75 CNS): 23600 nM
- GI50 (SR leukemia): 186 nM
- TGI (SR leukemia): 50000 nM
- GI50 (SW-620 colon): 582 nM
- TGI (SW-620 colon): 26400 nM
- GI50 (T-47D breast): 986 nM
- TGI (T-47D breast): 2610 nM
- GI50 (TK-10 renal): 681 nM
- TGI (TK-10 renal): 1630 nM
- GI50 (U251 CNS): 525 nM
- TGI (U251 CNS): 2390 nM
- GI50 (UACC-257 melanoma): 3480 nM
- TGI (UACC-257 melanoma): 10000 nM
- GI50 (UACC-62 melanoma): 875 nM
- TGI (UACC-62 melanoma): 2640 nM
- GI50 (UO-31 renal): 2830 nM
- TGI (UO-31 renal): 22200 nM
